Source: patent publication US8993574B2, “Pyrrole antifungal agents” (F2G Ltd, priority 2008, dated 2015)
In brackets after ≈: the same amount, converted by molar mass.

Experiments:
Type in all cases: cell-based
Aspergillus flavus [1] = assay: MIC, YAG medium; conditions: 24 h at 35° C, MIC banded into grades; for MIC: Aspergillus flavus, 24 h, read-out: MIC grade, A. flavus
In short: (§1)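 DMSO stocks diluted in water as doubling series; spore suspension in YAG (glucose, NH4Cl, yeast extract) added to give 1−2×10^4 cfu/mL. 35° C, 24 h. Growth by OD485; MIC at >70% inhibition, mg/L.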

[2] = test system: Aspergillus fumigatus AF210; assay: MIC, YAG medium; conditions: 24 h at 35° C, MIC banded into grades; for MIC: Aspergillus fumigatus, read-out: MIC grade, A. fumigatus 210
In short: as §1

[3] = test system: Aspergillus fumigatus AF293; assay: MIC, YAG medium; conditions: 24 h at 35° C, MIC banded into grades; for MIC: Aspergillus fumigatus, read-out: MIC grade, A. fumigatus
In short: as §1

Aspergillus niger [4] = assay: MIC, YAG medium; conditions: 24 h at 35° C, MIC banded into grades; for MIC: Aspergillus niger, read-out: MIC grade, A. niger
In short: as §1

Aspergillus terreus AT49 [5] = assay: MIC, YAG medium; conditions: 24 h at 35° C, MIC banded into grades; for MIC: Aspergillus terreus, read-out: MIC grade, A. terreus 49
In short: as §1

Aspergillus terreus AT4 [6] = assay: MIC, YAG medium; conditions: 24 h at 35° C, MIC banded into grades; for MIC: Aspergillus terreus, read-out: MIC grade, A. terreus
In short: as §1

Aspergillus flavus [7] = assay: MIC, RPMI medium; conditions: MIC banded into grades; for MIC: Aspergillus flavus, read-out: MIC grade, A. flavus
In short: (§2)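 OD485-based endpoint after 24-48 h/35° C; MIC = lowest concentration, >80% inhibition relative to drug-free. RPMI/2% glucose/0.135 M MOPS pH 7.0; 1−2×10^4 cfu/mL; range 50-0.05 mg/L.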

[8] = test system: Aspergillus fumigatus AF210; assay: MIC, RPMI medium; conditions: for MIC grade, A. fumigatus 210: MIC banded into grades; for MIC: Aspergillus fumigatus, AF210, MIC banded into grades, read-out: MIC grade, A. fumigatus 210
In short: as §2

[9] = test system: Aspergillus fumigatus AF293; assay: MIC, RPMI medium; conditions: for MIC grade, A. fumigatus: MIC banded into grades; for MIC: Aspergillus fumigatus, AF293, MIC banded into grades, read-out: MIC grade, A. fumigatus
In short: as §2

Aspergillus niger [10] = assay: MIC, RPMI medium; conditions: MIC banded into grades; for MIC: Aspergillus niger, read-out: MIC grade, A. niger
In short: as §2

Aspergillus terreus AT49 [11] = assay: MIC, RPMI medium; conditions: for MIC grade, A. terreus 49: MIC banded into grades; for MIC: Aspergillus terreus, AT49, MIC banded into grades, read-out: MIC grade, A. terreus 49
In short: as §2

Aspergillus terreus AT4 [12] = assay: MIC, RPMI medium; conditions: for MIC grade, A. terreus: MIC banded into grades; for MIC: Aspergillus terreus, AT4, MIC banded into grades, read-out: MIC grade, A. terreus
In short: as §2

Candida albicans = assay: MIC, RPMI medium; conditions: 24-48 h at 35° C., >80% growth inhibition, banded into grades; for MIC: Candida albicans
In short: as §2

Candida glabrata = assay: MIC, RPMI medium; conditions: 24-48 h at 35° C., >80% growth inhibition, banded into grades; for MIC: Nakaseomyces glabratus
In short: as §2

Candida krusei = assay: MIC, RPMI medium; conditions: 24-48 h at 35° C., >80% growth inhibition, banded into grades; for MIC: Pichia kudriavzevii
In short: as §2

Candida parapsilosis = assay: MIC, RPMI medium; conditions: 24-48 h at 35° C., >80% growth inhibition, banded into grades; for MIC: Lodderomyces parapsilosis
In short: as §2

Candida tropicalis = assay: MIC, RPMI medium; conditions: 24-48 h at 35° C., >80% growth inhibition, banded into grades; for MIC: Candida tropicalis
In short: as §2

Row | MIC (Aspergillus flavus [1]) [µg/mL] | MIC [2] [µg/mL] | MIC [3] [µg/mL] | Structure (SMILES) | MIC grade, A. flavus (Aspergillus flavus [1]) | MIC grade, A. fumigatus 210 [2] | MIC grade, A. fumigatus [3] | MIC grade, A. niger (Aspergillus niger [4]) | MIC grade, A. terreus 49 (Aspergillus terreus AT49 [5]) | MIC grade, A. terreus (Aspergillus terreus AT4 [6]) | MIC grade, A. flavus (Aspergillus flavus [7]) | MIC grade, A. fumigatus 210 [8] | MIC grade, A. fumigatus [9] | MIC grade, A. niger (Aspergillus niger [10]) | MIC grade, A. terreus 49 (Aspergillus terreus AT49 [11]) | MIC grade, A. terreus (Aspergillus terreus AT4 [12]) | Candida MIC, C. albicans (Candida albicans) | Candida MIC, C. glabrata (Candida glabrata) | Candida MIC, C. krusei (Candida krusei) | Candida MIC, C. parapsilosis (Candida parapsilosis) | Candida MIC, C. tropicalis (Candida tropicalis) | other results
1 | – | – | – | COCCn1c(C)cc(-c2ccccc2)c1C(=O)C(=O)Nc1ccccc1 [Example 60, 2-[1-(2-Methoxy-ethyl)-5-methyl-3-phenyl-1H-pyrrol-2-yl]-2-oxo-N-phenyl-1-acetamide] | 1 (a grade of 1 represents an MIC of greater than 10 mg/L) | 2 (A grade of 2 represents an MIC of from 1 to 10 mg/L) | 2 (A grade of 2 represents an MIC of from 1 to 10 mg/L) | 2 (A grade of 2 represents an MIC of from 1 to 10 mg/L) | 2 (A grade of 2 represents an MIC of from 1 to 10 mg/L) | 2 (A grade of 2 represents an MIC of from 1 to 10 mg/L) | 1 (a grade of 1 represents an MIC of greater than 10 mg/L) | 2 (A grade of 2 represents an MIC of from 1 to 10 mg/L) | 2 (A grade of 2 represents an MIC of from 1 to 10 mg/L) | 2 (A grade of 2 represents an MIC of from 1 to 10 mg/L) | 1 (a grade of 1 represents an MIC of greater than 10 mg/L) | 1 (a grade of 1 represents an MIC of greater than 10 mg/L) | 3 (A grade of 3 represents an MIC of less than 1 mg/L) | 3 (A grade of 3 represents an MIC of less than 1 mg/L) | 3 (A grade of 3 represents an MIC of less than 1 mg/L) | 3 (A grade of 3 represents an MIC of less than 1 mg/L) | 2 (A grade of 2 represents an MIC of from 1 to 10 mg/L) | –
2 | < 1 | < 1 | < 1 | COCCn1c(C)cc(-c2ccccc2)c1C(=O)C(=O)Nc1ccc(N2CCN(CC(C)(C)C)CC2)cc1F [Example 113, N-{4-[4-(2,2-Dimethyl-propyl)-piperazin-1-yl]-2-fluoro-phenyl}-2-[1-(2-methoxy-ethyl)-5-methyl-3-phenyl-1H-pyrrol-2-yl]-2-oxo-acetamide] | – | – | – | – | – | – | – | – | – | – | – | – | – | – | – | – | – | MIC (Aspergillus niger [4]): < 1 µg/mL; MIC (Aspergillus terreus AT49 [5]): < 1 µg/mL; MIC (Aspergillus terreus AT4 [6]): < 1 µg/mL; MIC (Aspergillus flavus [7]): 1 to 10 µg/mL (≈ 1.87 to 18.7 µM); MIC [8]: < 1 µg/mL; MIC [9]: 1 to 10 µg/mL (≈ 1.87 to 18.7 µM); MIC (Aspergillus niger [10]): < 1 µg/mL; MIC (Aspergillus terreus AT49 [11]): 1 to 10 µg/mL (≈ 1.87 to 18.7 µM); MIC (Aspergillus terreus AT4 [12]): < 1 µg/mL; MIC (Candida albicans): < 1 µg/mL; MIC (Candida glabrata): < 1 µg/mL; MIC (Candida krusei): < 1 µg/mL; MIC (Candida parapsilosis): < 1 µg/mL; MIC (Candida tropicalis): < 1 µg/mL
3 | < 1 | < 1 | < 1 | COCn1ccc(-c2ccccc2)c1C(=O)C(=O)Nc1ccc(N2CCN(c3cc(C)cc(C)n3)CC2)cc1 [Example 63, N-{4-[4-(4,6-Dimethyl-pyridin-2-yl)-piperazin-1-yl]-phenyl}-2-(1-methoxymethyl-3-phenyl-1H-pyrrol-2-yl)-2-oxo-acetamide] | – | – | – | – | – | – | – | – | – | – | – | – | – | – | – | – | – | MIC (Aspergillus niger [4]): 1 to 10 µg/mL (≈ 1.91 to 19.1 µM); MIC (Aspergillus terreus AT49 [5]): < 1 µg/mL; MIC (Aspergillus terreus AT4 [6]): < 1 µg/mL; MIC (Aspergillus flavus [7]): < 1 µg/mL; MIC [8]: < 1 µg/mL; MIC [9]: < 1 µg/mL; MIC (Aspergillus niger [10]): < 1 µg/mL; MIC (Aspergillus terreus AT49 [11]): < 1 µg/mL; MIC (Aspergillus terreus AT4 [12]): < 1 µg/mL; MIC (Candida albicans): 1 to 10 µg/mL (≈ 1.91 to 19.1 µM); MIC (Candida glabrata): < 1 µg/mL; MIC (Candida krusei): < 1 µg/mL; MIC (Candida parapsilosis): < 1 µg/mL; MIC (Candida tropicalis): < 1 µg/mL
4 | – | – | – | COC(=O)Cn1c(C)cc(-c2ccccc2)c1C(=O)C(=O)Nc1ccc(N2CCN(c3cc(C)cc(C)n3)CC2)cc1 [Example 52, (2-{4-[4-(4,6-Dimethyl-pyridin-2-yl)-piperazin-1-yl]-phenylaminooxalyl}-5-methyl-3-phenyl-pyrrol-1-yl)-acetic acid methyl ester] | 3 (A grade of 3 represents an MIC of less than 1 mg/L) | 3 (A grade of 3 represents an MIC of less than 1 mg/L) | 3 (A grade of 3 represents an MIC of less than 1 mg/L) | 3 (A grade of 3 represents an MIC of less than 1 mg/L) | 3 (A grade of 3 represents an MIC of less than 1 mg/L) | 3 (A grade of 3 represents an MIC of less than 1 mg/L) | 2 (A grade of 2 represents an MIC of from 1 to 10 mg/L) | 3 (A grade of 3 represents an MIC of less than 1 mg/L) | 3 (A grade of 3 represents an MIC of less than 1 mg/L) | 3 (A grade of 3 represents an MIC of less than 1 mg/L) | 3 (A grade of 3 represents an MIC of less than 1 mg/L) | 3 (A grade of 3 represents an MIC of less than 1 mg/L) | 2 (A grade of 2 represents an MIC of from 1 to 10 mg/L) | 3 (A grade of 3 represents an MIC of less than 1 mg/L) | 3 (A grade of 3 represents an MIC of less than 1 mg/L) | 2 (A grade of 2 represents an MIC of from 1 to 10 mg/L) | 2 (A grade of 2 represents an MIC of from 1 to 10 mg/L) | –
5 | > 10 | > 10 | > 10 | Cc1cc(C)nc(N2CCN(c3ccc(NC(=O)C(=O)c4cc(-c5ccccc5)cn4CCN(C)C)cc3)CC2)c1 [Example 85, 2-[1-(2-Dimethylamino-ethyl)-4-phenyl-1H-pyrrol-2-yl]-N-{4-[4-(4,6-dimethyl-pyridin-2-yl)-piperazin-1-yl]-phenyl}-2-oxo-acetamide] | – | – | – | – | – | – | – | – | – | – | – | – | – | – | – | – | – | MIC (Aspergillus niger [4]): 1 to 10 µg/mL (≈ 1.82 to 18.2 µM); MIC (Aspergillus terreus AT49 [5]): > 10 µg/mL; MIC (Aspergillus terreus AT4 [6]): > 10 µg/mL; MIC (Aspergillus flavus [7]): > 10 µg/mL; MIC [8]: > 10 µg/mL; MIC [9]: > 10 µg/mL; MIC (Aspergillus niger [10]): 1 to 10 µg/mL (≈ 1.82 to 18.2 µM); MIC (Aspergillus terreus AT49 [11]): 1 to 10 µg/mL (≈ 1.82 to 18.2 µM); MIC (Aspergillus terreus AT4 [12]): 1 to 10 µg/mL (≈ 1.82 to 18.2 µM); MIC (Candida albicans): 1 to 10 µg/mL (≈ 1.82 to 18.2 µM); MIC (Candida glabrata): 1 to 10 µg/mL (≈ 1.82 to 18.2 µM); MIC (Candida krusei): 1 to 10 µg/mL (≈ 1.82 to 18.2 µM); MIC (Candida parapsilosis): 1 to 10 µg/mL (≈ 1.82 to 18.2 µM); MIC (Candida tropicalis): 1 to 10 µg/mL (≈ 1.82 to 18.2 µM)
6 | – | – | – | COC(=O)Cn1ccc(CC(C)C)c1C(=O)C(=O)Nc1ccc(N2CCN(c3cc(C)cc(C)n3)CC2)cc1 [Example 89, (2-{4-[4-(4,6-Dimethyl-pyridin-2-yl)-piperazin-1-yl]-phenylaminooxalyl}-3-isobutyl-pyrrol-1-yl)-acetic acid methyl ester] | 1 (a grade of 1 represents an MIC of greater than 10 mg/L) | 3 (A grade of 3 represents an MIC of less than 1 mg/L) | 3 (A grade of 3 represents an MIC of less than 1 mg/L) | 2 (A grade of 2 represents an MIC of from 1 to 10 mg/L) | 2 (A grade of 2 represents an MIC of from 1 to 10 mg/L) | 2 (A grade of 2 represents an MIC of from 1 to 10 mg/L) | 1 (a grade of 1 represents an MIC of greater than 10 mg/L) | 2 (A grade of 2 represents an MIC of from 1 to 10 mg/L) | 2 (A grade of 2 represents an MIC of from 1 to 10 mg/L) | 2 (A grade of 2 represents an MIC of from 1 to 10 mg/L) | 1 (a grade of 1 represents an MIC of greater than 10 mg/L) | 1 (a grade of 1 represents an MIC of greater than 10 mg/L) | 2 (A grade of 2 represents an MIC of from 1 to 10 mg/L) | 3 (A grade of 3 represents an MIC of less than 1 mg/L) | 3 (A grade of 3 represents an MIC of less than 1 mg/L) | 3 (A grade of 3 represents an MIC of less than 1 mg/L) | 3 (A grade of 3 represents an MIC of less than 1 mg/L) | –
